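Cultured in 96-well plates, cells were exposed to test compound for 48 hours across five concentrations. Here, GI50 denotes the concentration required for 50% inhibition of growth. The concentration for full growth arrest is given as TGI.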
Columns and labels:
Experiment in all cases: growth of human tumour cells (NCI), 48 h
786-0 renal = test system: 786-0 renal
A498 renal = test system: A498 renal
A549 NSCLC = test system: A549 NSCLC
ACHN renal = test system: ACHN renal
BT-549 breast = test system: BT-549 breast
CAKI-1 renal = test system: CAKI-1 renal
CCRF-CEM leukemia = test system: CCRF-CEM leukemia
COLO 205 colon = test system: COLO 205 colon
DU-145 prostate = test system: DU-145 prostate
HCC-2998 colon = test system: HCC-2998 colon
HCT-15 colon = test system: HCT-15 colon
HL-60(TB) leukemia = test system: HL-60(TB) leukemia
HOP-62 NSCLC = test system: HOP-62 NSCLC
HOP-92 NSCLC = test system: HOP-92 NSCLC
HS 578T breast = test system: HS 578T breast
HT29 colon = test system: HT29 colon
IGROV1 ovarian = test system: IGROV1 ovarian
K-562 leukemia = test system: K-562 leukemia
KM12 colon = test system: KM12 colon
M14 melanoma = test system: M14 melanoma
MALME-3M melanoma = test system: MALME-3M melanoma
MCF7 breast = test system: MCF7 breast
MDA-MB-231 breast = test system: MDA-MB-231 breast
MDA-MB-435 = test system: MDA-MB-435
MOLT-4 leukemia = test system: MOLT-4 leukemia
NCI-H226 lung = test system: NCI-H226 lung
NCI-H23 lung = test system: NCI-H23 lung
NCI-H460 lung = test system: NCI-H460 lung
NCI/ADR-RES ovarian = test system: NCI/ADR-RES ovarian
OVCAR-4 ovarian = test system: OVCAR-4 ovarian
OVCAR-5 ovarian = test system: OVCAR-5 ovarian
OVCAR-8 ovarian = test system: OVCAR-8 ovarian
PC-3 prostate = test system: PC-3 prostate
RPMI-8226 leukemia = test system: RPMI-8226 leukemia
RXF 393 renal = test system: RXF 393 renal
SF-268 CNS = test system: SF-268 CNS
SF-295 CNS = test system: SF-295 CNS
SF-539 CNS = test system: SF-539 CNS
SK-MEL-2 melanoma = test system: SK-MEL-2 melanoma
SK-MEL-28 melanoma = test system: SK-MEL-28 melanoma
SK-MEL-5 melanoma = test system: SK-MEL-5 melanoma
SK-OV-3 ovarian = test system: SK-OV-3 ovarian
SN12C renal = test system: SN12C renal
SNB-19 CNS = test system: SNB-19 CNS
SNB-75 CNS = test system: SNB-75 CNS
SR leukemia = test system: SR leukemia
SW-620 colon = test system: SW-620 colon
T-47D breast = test system: T-47D breast
TK-10 renal = test system: TK-10 renal
UACC-257 melanoma = test system: UACC-257 melanoma
UACC-62 melanoma = test system: UACC-62 melanoma
UO-31 renal = test system: UO-31 renal

Question: With `Cc1cc2nc(C(Cl)Cl)nc(-c3cccs3)n2n1` as the compound, how does the GI50 (786-0 renal) read?
Answer: 4.7 µM

Question: What about the TGI (786-0 renal) of the same compound?
Answer: > 100 µM

Question: What about the GI50 (A498 renal) of the same compound?
Answer: 1.2 µM

Question: And the TGI (A498 renal)?
Answer: 2.66 µM

Question: What about the GI50 (A549 NSCLC) of the same compound?
Answer: 0.374 µM

Question: What about the TGI (A549 NSCLC) of the same compound?
Answer: 3.51 µM

Question: What about the GI50 (ACHN renal) of the same compound?
Answer: 0.366 µM

Question: And the TGI (ACHN renal)?
Answer: 2.44 µM

Question: What about the GI50 (BT-549 breast) of the same compound?
Answer: 7.67 µM

Question: And the TGI (BT-549 breast)?
Answer: > 100 µM

Question: And the GI50 (CAKI-1 renal)?
Answer: 1.66 µM

Question: And the TGI (CAKI-1 renal)?
Answer: 5.97 µM

Question: And the GI50 (CCRF-CEM leukemia)?
Answer: 4.22 µM

Question: And the TGI (CCRF-CEM leukemia)?
Answer: > 100 µM

Question: What about the GI50 (COLO 205 colon) of the same compound?
Answer: 0.942 µM

Question: And the TGI (COLO 205 colon)?
Answer: 3.29 µM

Question: What about the GI50 (DU-145 prostate) of the same compound?
Answer: 0.289 µM

Question: What about the TGI (DU-145 prostate) of the same compound?
Answer: 0.858 µM

Question: And the GI50 (HCC-2998 colon)?
Answer: 0.514 µM

Question: And the TGI (HCC-2998 colon)?
Answer: 1.91 µM

Question: And the GI50 (HCT-15 colon)?
Answer: 1.2 µM

Question: And the TGI (HCT-15 colon)?
Answer: 4.03 µM

Question: And the GI50 (HL-60(TB) leukemia)?
Answer: 0.346 µM

Question: And the TGI (HL-60(TB) leukemia)?
Answer: 2.39 µM

Question: And the GI50 (HOP-62 NSCLC)?
Answer: 0.938 µM

Question: And the TGI (HOP-62 NSCLC)?
Answer: 4.43 µM

Question: And the GI50 (HOP-92 NSCLC)?
Answer: 1.41 µM

Question: What about the TGI (HOP-92 NSCLC) of the same compound?
Answer: 3.92 µM

Question: What about the GI50 (HS 578T breast) of the same compound?
Answer: 1.93 µM

Question: What about the TGI (HS 578T breast) of the same compound?
Answer: 6.21 µM

Question: What about the GI50 (HT29 colon) of the same compound?
Answer: 0.496 µM

Question: What about the TGI (HT29 colon) of the same compound?
Answer: 2.19 µM

Question: What about the GI50 (IGROV1 ovarian) of the same compound?
Answer: 2.43 µM

Question: What about the TGI (IGROV1 ovarian) of the same compound?
Answer: > 100 µM

Question: What about the GI50 (K-562 leukemia) of the same compound?
Answer: 2.54 µM

Question: What about the TGI (K-562 leukemia) of the same compound?
Answer: > 100 µM

Question: And the GI50 (KM12 colon)?
Answer: 2.02 µM

Question: And the TGI (KM12 colon)?
Answer: 4.51 µM

Question: What about the GI50 (M14 melanoma) of the same compound?
Answer: 2.1 µM

Question: And the TGI (M14 melanoma)?
Answer: 4.99 µM

Question: What about the GI50 (MALME-3M melanoma) of the same compound?
Answer: 2.21 µM

Question: And the TGI (MALME-3M melanoma)?
Answer: 5.31 µM

Question: What about the GI50 (MCF7 breast) of the same compound?
Answer: 0.705 µM

Question: And the TGI (MCF7 breast)?
Answer: > 100 µM

Question: What about the GI50 (MDA-MB-231 breast) of the same compound?
Answer: 1.55 µM

Question: And the TGI (MDA-MB-231 breast)?
Answer: 4.43 µM

Question: What about the GI50 (MDA-MB-435) of the same compound?
Answer: 1.86 µM

Question: What about the TGI (MDA-MB-435) of the same compound?
Answer: 3.81 µM

Question: And the GI50 (MOLT-4 leukemia)?
Answer: 1.48 µM

Question: What about the TGI (MOLT-4 leukemia) of the same compound?
Answer: > 100 µM

Question: What about the GI50 (NCI-H226 lung) of the same compound?
Answer: > 100 µM

Question: And the TGI (NCI-H226 lung)?
Answer: > 100 µM

Question: What about the GI50 (NCI-H23 lung) of the same compound?
Answer: 0.953 µM

Question: What about the TGI (NCI-H23 lung) of the same compound?
Answer: 2.96 µM

Question: What about the GI50 (NCI-H460 lung) of the same compound?
Answer: 0.333 µM

Question: What about the TGI (NCI-H460 lung) of the same compound?
Answer: 1.57 µM

Question: And the GI50 (NCI/ADR-RES ovarian)?
Answer: 1.26 µM

Question: What about the TGI (NCI/ADR-RES ovarian) of the same compound?
Answer: 4.72 µM

Question: What about the GI50 (OVCAR-4 ovarian) of the same compound?
Answer: 2.12 µM

Question: And the TGI (OVCAR-4 ovarian)?
Answer: 4.74 µM

Question: And the GI50 (OVCAR-5 ovarian)?
Answer: 1.93 µM

Question: And the TGI (OVCAR-5 ovarian)?
Answer: 5.73 µM

Question: What about the GI50 (OVCAR-8 ovarian) of the same compound?
Answer: 1.27 µM

Question: And the TGI (OVCAR-8 ovarian)?
Answer: > 100 µM

Question: What about the GI50 (PC-3 prostate) of the same compound?
Answer: 1.41 µM

Question: And the TGI (PC-3 prostate)?
Answer: 4.32 µM

Question: What about the GI50 (RPMI-8226 leukemia) of the same compound?
Answer: 1.4 µM

Question: What about the TGI (RPMI-8226 leukemia) of the same compound?
Answer: 5.47 µM

Question: What about the GI50 (RXF 393 renal) of the same compound?
Answer: 0.838 µM

Question: What about the TGI (RXF 393 renal) of the same compound?
Answer: 2.23 µM

Question: And the GI50 (SF-268 CNS)?
Answer: 1.98 µM

Question: And the TGI (SF-268 CNS)?
Answer: 7.27 µM

Question: What about the GI50 (SF-295 CNS) of the same compound?
Answer: 1.27 µM

Question: And the TGI (SF-295 CNS)?
Answer: 5.8 µM

Question: What about the GI50 (SF-539 CNS) of the same compound?
Answer: 2.27 µM

Question: And the TGI (SF-539 CNS)?
Answer: 7.49 µM

Question: What about the GI50 (SK-MEL-2 melanoma) of the same compound?
Answer: 3.05 µM

Question: What about the TGI (SK-MEL-2 melanoma) of the same compound?
Answer: > 100 µM

Question: What about the GI50 (SK-MEL-28 melanoma) of the same compound?
Answer: 1.83 µM

Question: What about the TGI (SK-MEL-28 melanoma) of the same compound?
Answer: 3.63 µM

Question: What about the GI50 (SK-MEL-5 melanoma) of the same compound?
Answer: 9.61 µM

Question: And the TGI (SK-MEL-5 melanoma)?
Answer: > 100 µM

Question: And the GI50 (SK-OV-3 ovarian)?
Answer: 2.15 µM

Question: What about the TGI (SK-OV-3 ovarian) of the same compound?
Answer: 6.51 µM

Question: What about the GI50 (SN12C renal) of the same compound?
Answer: > 100 µM

Question: What about the TGI (SN12C renal) of the same compound?
Answer: > 100 µM

Question: And the GI50 (SNB-19 CNS)?
Answer: 1.18 µM

Question: And the TGI (SNB-19 CNS)?
Answer: 5.99 µM

Question: And the GI50 (SNB-75 CNS)?
Answer: 0.702 µM

Question: What about the TGI (SNB-75 CNS) of the same compound?
Answer: 2.94 µM

Question: And the GI50 (SR leukemia)?
Answer: 1.43 µM

Question: And the TGI (SR leukemia)?
Answer: > 100 µM

Question: And the GI50 (SW-620 colon)?
Answer: 1.38 µM

Question: What about the TGI (SW-620 colon) of the same compound?
Answer: 8.1 µM

Question: And the GI50 (T-47D breast)?
Answer: 1.4 µM

Question: And the TGI (T-47D breast)?
Answer: 7.66 µM

Question: And the GI50 (TK-10 renal)?
Answer: 2.11 µM

Question: What about the TGI (TK-10 renal) of the same compound?
Answer: 5.92 µM

Question: What about the GI50 (UACC-257 melanoma) of the same compound?
Answer: 1.87 µM

Question: What about the TGI (UACC-257 melanoma) of the same compound?
Answer: 4.55 µM

Question: What about the GI50 (UACC-62 melanoma) of the same compound?
Answer: 3 µM

Question: And the TGI (UACC-62 melanoma)?
Answer: > 100 µM

Question: And the GI50 (UO-31 renal)?
Answer: 1.67 µM

Question: And the TGI (UO-31 renal)?
Answer: 5.14 µM

From PubChem BioAssay (NCI)
